Source: patent publication US4755594A, “N^6 -substituted adenosines” (Warner-Lambert Company, priority 1986, dated 1988)

Assays:
adenosine A2 receptor = target: T1, adenosine A2 receptor (Rattus norvegicus, UniProt P30543); experiment: Adenosine Receptor Binding--A2 Receptor Affinity (RBA2), [3H]NECA, striatal membranes; conditions: read-out: RBA-2 IC50
T1 construct: Brains were thawed and then kept on ice while the striata were dissected out; tissue Pel-Freez (Rogers, Ark.); host or cells: striata of Sprague-Dawley rats (Long-Evans hooded rats gave essentially identical results)
T1 sequence (P30543 whole entry): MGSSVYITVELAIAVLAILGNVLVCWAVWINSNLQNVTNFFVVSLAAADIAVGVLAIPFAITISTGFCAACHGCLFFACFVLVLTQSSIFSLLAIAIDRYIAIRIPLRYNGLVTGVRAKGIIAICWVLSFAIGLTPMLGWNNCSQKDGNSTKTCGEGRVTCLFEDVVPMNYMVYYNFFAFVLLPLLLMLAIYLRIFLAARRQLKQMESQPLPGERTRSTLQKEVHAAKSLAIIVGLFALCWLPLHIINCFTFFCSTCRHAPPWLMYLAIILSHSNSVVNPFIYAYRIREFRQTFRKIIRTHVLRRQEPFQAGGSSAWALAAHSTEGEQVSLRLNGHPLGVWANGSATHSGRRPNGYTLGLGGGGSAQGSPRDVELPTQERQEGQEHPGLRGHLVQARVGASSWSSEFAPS
Experimental: Adenosine Receptor Binding--A2 Receptor Affinity (RBA2)
Brains from 200-500 g mixed sex Sprague-Dawley rats were purchased from Pel-Freez (Rogers, Ark.). Fresh brains from male Long-Evans hooded rats (Blue Spruce Farms, Altamont, NY) gave essentially identical results. Brains were thawed and then kept on ice while the striata were dissected out. Striata were disrupted in 10 vol of ice-cold 50 mM Tris.HCl (pH 7.7 at 25° C., pH 8.26 at 5° C.) (Tris) for 30 seconds in a Polytron PT-10 (Brinkmann) at setting 5. The suspension was centrifuged at 50,000 xg for ten minutes, the supernatant discarded, the pellet resuspended in 10 vol ice-cold Tris as above, recentrifuged, resuspended at 1 g/5ml, and stored in plastic vials at -70° C. (stable for at least six months). When needed, tissue was thawed at room temperature, disrupted in a Polytron, and kept on ice until used.
All incubations were for 60 minutes at 25° C. in 12×75 mm glass tubes containing 1 ml Tris with 5 mg original tissue weight of rat weight of rat striatal membranes, 4 nM [^3 H]--N-ethyl adenosine-5'-carboxamide ([^3 H]NECA), 50 nM N^6 -cyclopentyladenosine (to eliminate A1 receptor binding), 10 mM MgCl2, 0.1 units/ml of adenosine deaminase and 1% dimethylsulfoxide. N^6 -Cyclopentyladenosine was dissolved at 10 mM in 0.02N HCl and diluted in Tris. Stock solutions and dilutions of N^6 -cyclopentyladenosine could be stored at -20° C. for several months. Test compounds were dissolved at 10 mM in dimethylsulfoxide on the same day as the experiment, and diluted in dimethylsulfoxide to 100×the final incubation concentration. Control incubations received an equal volume (10 μl) of dimethylsulfoxide; the resulting concentration of dimethylsulfoxide had no effect on binding. [^3 H]NECA was diluted to 40 nM in Tris. The membrane suspension (5 mg/0.79 ml) contained sufficient MgCl2 and adenosine deaminase to give 10 mM and 0.1 units/ml, respectively, final concentration in the incubation. […] After all additions, the rack of tubes was vortexed, and the tubes were then incubated for 60 min at 25° C. in a shaking water bath. The rack of tubes was vortexed an additional time halfway through the incubation.
Incubations were terminated by filtration through 2.4 cm GF/B filters under reduced pressure. Each tube was filtered as follows: the contents of the tube were poured on the filter, 4 ml of ice-cold Tris were added to the tube and the contents poured onto the filter, and the filter was washed twice with 4 ml of ice-cold Tris. The filtration was complete in about twelve seconds. Filters were put in scintillation vials, 8 ml of Formula 947 scintillation fluid added, and the vials left overnight, shaken, and counted in a liquid scintillation counter at 40% efficiency.
Nonspecific binding was defined as binding in the presence of 100 μM N^6 -cyclopentyladenosine, and specific binding was defined as total binding minus nonspecific binding. The IC50 was calculated by weighted nonlinear least squares curve-fitting to the mass-action equation. [formula] where Y is cpm bound
T is cpm total binding without drug
S is cpm specific binding without drug
D is the concentration of drug and
K is the IC50 of the drug
Weighting factors were calculated under the assumption that the standard deviation was proportional to the predicted value of Y. Nonspecific binding was treated as a very large (infinite) concentration of drug in the computer analysis.

[1] = Mouse Activity and Screen Test Procedure (MAST): screen test; type: in vivo, Swiss-Webster male mice; conditions: IP
Excerpt: The compounds of the invention are new chemical substances which are useful as pharmaceutical agents for the treatment of psychoses. The antipsychotic activity of representative compounds of the invention was established by the Mouse Activity and Screen Test Procedure (MAST) described below. Animals Nine unfasted Swiss-Webster male mice weighing 20-30 g are equally divided into three groups for each drug dose to be tested. That is, data for each dose level was generated by three separate groups of three mice each. Drugs A minimum of three dose levels (10, 30, and 100 mg/kg) are tested for each drug. Treatments are administered intraperitoneally one hour prior to testing. All dosages are calculated as parent compound and given in volumes of 10 ml/kg. Compounds are dissolved or suspended in 0.2% Methocel. Control animals are injected with Methocel. Testing A two part testing procedure is started one hour postinjection. First, the screen test (ST) is performed (see Pharmac. Biochem. Behav. 6, 351-353, 1977). Briefly this test consists of placing mice on individual wire screens which are then rotated 180 degrees at the start of a 60 second observation period. The number of mice falling off the inverted screen is recorded. Data The data obtained from the screen test are expressed as percent of mice falling off the screen. Data derived from locomotor activity of drug treated mice are compared to the activity of vehicle treated animals and are expressed as percent inhibition of spontaneous locomotion. All percentages reported for inhibition of locomotion (LI) are based upon data accumulated for one hour. Both phases of testing are graded: A=60-100%; C=31-59%; and N=0-30%. An overall dose rating is obtained by the following criteria: […]

Structure (SMILES)	IC50 (adenosine A2 receptor)	Inhibition of screen test failure ([1]; 0.3 mg/kg)	Inhibition of screen test failure ([1]; 1.0 mg/kg)	Inhibition of screen test failure ([1]; 3 mg/kg)	Inhibition of screen test failure ([1]; 10 mg/kg)	Inhibition of screen test failure ([1]; 30 mg/kg)	Inhibition of screen test failure ([1]; 100 mg/kg)	Inhibition of screen test failure ([1]; 0.03 mg/kg)	Inhibition of screen test failure ([1]; 0.1 mg/kg)
OC[C@H]1O[C@@H](n2cnc3c(NCC4(c5ccccc5)CC4)ncnc32)[C@H](O)[C@@H]1O [Example 1, N6-((1-Phenylcyclopropyl)methyl)adenosine]	80 nM	11%	0%	0%	0%	22%	44%		
OC[C@H]1O[C@@H](n2cnc3c(NCC4(c5cccc(Cl)c5)CC4)ncnc32)[C@H](O)[C@@H]1O [Example 2, N6-((1-(3-Chlorophenyl)cyclopropyl)methyl)adenosine]	200 nM			11%	0%	0%			
OC[C@H]1O[C@@H](n2cnc3c(NCC4(c5cccs5)CC4)ncnc32)[C@H](O)[C@@H]1O [Example 3, N6-((1-Thien-2-ylcyclopropyl)methyl)adenosine]	8.6 nM	0%	0%	0%	0%			0%	0%
O[C@@H]1[C@H](O)[C@@H](CCl)O[C@H]1n1cnc2c(NCC3(c4ccccc4)CC3)ncnc21 [Example 5, 5'-Deoxy-5'-chloro-N6-((1-phenylcyclopropyl)methyl)adenosine]	420 nM			11%	0%	0%			
O[C@@H]1[C@H](O)[C@@H](CCl)O[C@H]1n1cnc2c(NCC3(c4cccs4)CC3)ncnc21 [Example 6, 5'-Chloro-5'-deoxy-N6-((1-thien-2-ylcyclopropyl)methyl)adenosine]	67 nM			0%	0%	0%			
OC[C@H]1O[C@@H](n2cnc3c(NCC4(c5ccccc5)CCC4)ncnc32)[C@H](O)[C@@H]1O [Example 7, N6-((1-Phenylcyclobutyl)methyl)adenosine]	150 nM		0%	0%	0%				
OC[C@H]1O[C@@H](n2cnc3c(NCC4(c5cccc(Cl)c5)CCC4)ncnc32)[C@H](O)[C@@H]1O [Example 8, N6-((1-(3-Chlorophenyl)cyclobutyl)methyl)adenosine]	320 nM			0%	0%	0%			
OC[C@H]1O[C@@H](n2cnc3c(NCC4(c5cccs5)CCC4)ncnc32)[C@H](O)[C@@H]1O [Example 9, N6-((1-Thien-2-ylcyclobutyl)methyl)adenosine]	87 nM			0%	0%	0%			
OC[C@H]1O[C@@H](n2cnc3c(NCC4(c5ccccc5)CCCC4)ncnc32)[C@H](O)[C@@H]1O [Example 10, N6-((1-Phenylcyclopentyl)methyl)adenosine]	460 nM			11%	0%	22%			
OC[C@H]1O[C@@H](n2cnc3c(NCC4(c5ccccc5)CCCCC4)ncnc32)[C@H](O)[C@@H]1O [Example 11, N6-((1-Phenylcyclohexyl)methyl)adenosine]	3200 nM			11%	0%	0%			
OC[C@H]1O[C@@H](n2cnc3c(NCC4(c5ccc(Cl)cc5)CC4)ncnc32)[C@H](O)[C@@H]1O [Example 12, N6-((1-(4-Chlorophenyl)cyclopropyl)methyl)adenosine]	1200 nM			0%	0%	0%			
